In ChEMBL document CHEMBL1201862, “PubChem BioAssay data set” (2004) one finds IC50 and EC50 data, which are given here for 9 compounds.

Calls of active or inactive are those of the source.

Common to all, as to format: functional
Test [1] addresses T1, Low molecular weight phosphotyrosine protein phosphatase (Homo sapiens, UniProt P24666).
T1 sequence (P24666 whole entry): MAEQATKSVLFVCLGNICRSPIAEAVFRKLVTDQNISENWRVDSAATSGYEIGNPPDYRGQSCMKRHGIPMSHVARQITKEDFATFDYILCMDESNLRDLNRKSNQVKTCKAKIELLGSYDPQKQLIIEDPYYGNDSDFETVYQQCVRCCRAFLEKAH
Conditions: read-out: IC50_Mean.

In test [2] the target is T2, Heat shock factor protein 1 (Mus musculus, UniProt P38532).
T2 sequence (P38532 whole entry): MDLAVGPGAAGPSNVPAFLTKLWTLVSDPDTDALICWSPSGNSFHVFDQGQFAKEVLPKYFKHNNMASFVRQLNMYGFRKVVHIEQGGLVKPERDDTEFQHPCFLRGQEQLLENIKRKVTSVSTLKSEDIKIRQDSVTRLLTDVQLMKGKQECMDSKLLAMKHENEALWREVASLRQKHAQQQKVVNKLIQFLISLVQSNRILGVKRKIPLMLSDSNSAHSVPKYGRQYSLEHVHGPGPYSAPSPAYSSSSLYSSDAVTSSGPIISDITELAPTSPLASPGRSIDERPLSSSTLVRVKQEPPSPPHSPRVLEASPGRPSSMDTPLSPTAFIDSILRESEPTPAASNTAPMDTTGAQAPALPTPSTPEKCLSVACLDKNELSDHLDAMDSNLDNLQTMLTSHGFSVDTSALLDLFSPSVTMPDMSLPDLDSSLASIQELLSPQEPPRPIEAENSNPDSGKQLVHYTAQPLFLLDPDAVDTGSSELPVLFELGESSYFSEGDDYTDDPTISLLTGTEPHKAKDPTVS
The test can be described thus: enhancement of HSF1-driven luciferase signal – cell-based, NIH3T3, luminescence, dose retest, confirmation (AID 435004).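 Also: stress induced by proteasome inhibitor MG132 added 30 min after compound; luciferase reporter driven by HSF1 response element in NIH3T3 cells; actives raise luminescence as potentiators of the MG132 stress response.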

For test [3], the target named is T3, Sentrin-specific protease 7 (Homo sapiens, UniProt Q9BQF6).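 Also: Luminescence-based dose-response confirmation of ultra-high-throughput screening hits, measuring inhibition of SENP7.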
T3 sequence (Q9BQF6 whole entry): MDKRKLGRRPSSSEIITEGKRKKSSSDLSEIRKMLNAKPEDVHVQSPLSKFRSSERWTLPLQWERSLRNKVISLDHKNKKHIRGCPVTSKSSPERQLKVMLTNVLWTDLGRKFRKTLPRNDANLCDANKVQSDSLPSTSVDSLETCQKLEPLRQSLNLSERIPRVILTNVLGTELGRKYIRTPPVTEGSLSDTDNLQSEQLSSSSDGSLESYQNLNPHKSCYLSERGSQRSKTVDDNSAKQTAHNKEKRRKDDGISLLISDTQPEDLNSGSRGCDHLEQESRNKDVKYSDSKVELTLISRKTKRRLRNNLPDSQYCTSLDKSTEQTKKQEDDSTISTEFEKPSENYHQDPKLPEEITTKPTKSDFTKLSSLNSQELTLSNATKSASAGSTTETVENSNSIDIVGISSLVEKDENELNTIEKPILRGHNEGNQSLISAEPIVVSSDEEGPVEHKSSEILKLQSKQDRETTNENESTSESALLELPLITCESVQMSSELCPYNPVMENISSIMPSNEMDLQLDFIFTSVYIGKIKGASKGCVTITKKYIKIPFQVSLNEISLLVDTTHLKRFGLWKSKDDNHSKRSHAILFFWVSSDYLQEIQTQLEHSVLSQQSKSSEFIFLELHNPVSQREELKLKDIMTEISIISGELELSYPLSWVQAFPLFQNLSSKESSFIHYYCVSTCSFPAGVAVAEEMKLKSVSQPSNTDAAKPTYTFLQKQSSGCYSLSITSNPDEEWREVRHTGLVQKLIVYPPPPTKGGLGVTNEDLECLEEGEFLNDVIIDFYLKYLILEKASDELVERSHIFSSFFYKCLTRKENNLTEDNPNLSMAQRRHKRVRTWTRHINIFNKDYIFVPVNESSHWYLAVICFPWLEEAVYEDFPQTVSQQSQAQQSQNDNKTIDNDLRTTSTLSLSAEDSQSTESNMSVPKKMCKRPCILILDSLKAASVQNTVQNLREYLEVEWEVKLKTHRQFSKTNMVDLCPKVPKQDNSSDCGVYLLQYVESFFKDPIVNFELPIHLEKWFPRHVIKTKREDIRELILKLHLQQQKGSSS

In test [4] the target is T4, Caspase-3 (Homo sapiens, UniProt P42574).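 Also: Dose-response selectivity test against caspase-3 for candidate inhibitors of sentrin-specific proteases (SENPs).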
T4 sequence (P42574 whole entry): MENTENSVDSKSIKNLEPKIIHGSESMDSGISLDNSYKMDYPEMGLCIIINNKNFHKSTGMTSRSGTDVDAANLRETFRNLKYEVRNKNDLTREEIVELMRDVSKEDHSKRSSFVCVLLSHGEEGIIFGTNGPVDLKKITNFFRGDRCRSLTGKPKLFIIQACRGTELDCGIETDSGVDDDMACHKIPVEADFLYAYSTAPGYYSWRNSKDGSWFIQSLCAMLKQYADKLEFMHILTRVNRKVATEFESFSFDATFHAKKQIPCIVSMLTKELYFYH

Test [5] addresses T5, Sentrin-specific protease 8 (Homo sapiens, UniProt Q96LD8).
T5 sequence (Q96LD8 whole entry): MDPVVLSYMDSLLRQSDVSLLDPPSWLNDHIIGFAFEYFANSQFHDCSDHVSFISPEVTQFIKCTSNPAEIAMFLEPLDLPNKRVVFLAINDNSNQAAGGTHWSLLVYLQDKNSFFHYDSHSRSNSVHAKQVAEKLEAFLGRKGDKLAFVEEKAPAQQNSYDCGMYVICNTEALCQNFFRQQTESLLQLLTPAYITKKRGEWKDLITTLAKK

In test [6] the target is T6, Sentrin-specific protease 6 (Homo sapiens, UniProt Q9GZR1).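 Also: Luminescence-based dose-response confirmatory assay of SENP6 inhibition, following up an ultra-high-throughput screen.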
T6 sequence (Q9GZR1 whole entry): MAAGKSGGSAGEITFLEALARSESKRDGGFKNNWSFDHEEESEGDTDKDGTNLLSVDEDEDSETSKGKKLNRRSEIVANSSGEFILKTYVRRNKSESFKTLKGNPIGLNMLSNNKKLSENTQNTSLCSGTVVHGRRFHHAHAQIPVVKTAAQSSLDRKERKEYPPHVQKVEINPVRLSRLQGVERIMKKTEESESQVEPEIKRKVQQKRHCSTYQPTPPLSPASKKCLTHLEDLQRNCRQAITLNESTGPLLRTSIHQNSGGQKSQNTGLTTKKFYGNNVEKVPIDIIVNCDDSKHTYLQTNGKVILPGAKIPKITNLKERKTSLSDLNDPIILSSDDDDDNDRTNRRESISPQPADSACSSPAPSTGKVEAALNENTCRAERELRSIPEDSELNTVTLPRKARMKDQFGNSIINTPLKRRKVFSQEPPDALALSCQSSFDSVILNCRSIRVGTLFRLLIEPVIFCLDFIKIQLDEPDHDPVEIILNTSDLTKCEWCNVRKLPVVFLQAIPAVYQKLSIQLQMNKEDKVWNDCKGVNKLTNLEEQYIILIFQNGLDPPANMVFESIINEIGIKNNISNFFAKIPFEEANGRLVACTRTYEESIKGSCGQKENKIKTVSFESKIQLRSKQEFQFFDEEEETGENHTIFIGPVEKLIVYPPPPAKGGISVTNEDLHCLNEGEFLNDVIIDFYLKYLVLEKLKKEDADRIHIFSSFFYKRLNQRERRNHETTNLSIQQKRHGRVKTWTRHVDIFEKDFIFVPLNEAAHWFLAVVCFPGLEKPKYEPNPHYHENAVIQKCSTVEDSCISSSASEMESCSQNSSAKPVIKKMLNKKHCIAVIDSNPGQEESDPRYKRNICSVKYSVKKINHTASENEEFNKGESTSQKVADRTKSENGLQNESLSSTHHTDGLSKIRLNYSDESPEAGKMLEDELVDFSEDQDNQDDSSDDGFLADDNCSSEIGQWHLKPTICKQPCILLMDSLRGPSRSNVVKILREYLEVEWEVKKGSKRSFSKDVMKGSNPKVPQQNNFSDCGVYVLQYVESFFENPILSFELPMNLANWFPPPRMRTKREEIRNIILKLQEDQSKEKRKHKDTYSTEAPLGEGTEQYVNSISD

The target of test [7] is T7, Endoribonuclease toxin MazF (Escherichia coli K-12, UniProt P0AE70).
T7 sequence (P0AE70 whole entry): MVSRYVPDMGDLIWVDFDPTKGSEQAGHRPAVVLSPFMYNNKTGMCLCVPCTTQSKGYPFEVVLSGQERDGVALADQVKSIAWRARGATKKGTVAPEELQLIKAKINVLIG
The test can be described thus: substrate-only fluorescence increase artefacts – biochemical, single-stranded RNase substrate, counter-screen for MazEF activator project, dose response (AID 588502).

Test [8] concerns the target T7, Endoribonuclease toxin MazF. The test can be described thus: activation of MazEF endoribonuclease cleavage – biochemical, fluorescence, single-stranded RNA substrate, uHTS hits, dose response (AID 588481).
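For IC50 Mean in this document: Dose-response confirmation assay measuring inhibition of LMPTP enzyme activity by fluorescence intensity read-out.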

In the case of `CN(C)/C=C/C(=O)c1ccc(OCCN(C)c2ccccn2)cc1`, the IC50 in test [1] is 29.9 µM (inactive).

As for `Cc1ccc(C(=O)c2sc3nsc(C)c3c2N)cc1`, the 50% effective concentration (EC50) in test [2] is > 260 µM (inconclusive). In addition, the IC50 is 4.6 µM (active) in test [3], 28.9 µM (active) in test [4], > 100 µM (inactive) in test [5] and > 100 µM (inactive) in test [6].

Take `CCOC(=O)CSc1nc2ccc(C)cc2cc1C#N`: the EC50 in test [7] was > 99 µM (inactive); in test [8] it was 9.32 µM (active).

For the compound `CS(=O)(=O)Nc1ccc(C(=O)Nc2ccc3ccccc3c2)cc1`, the IC50 in test [3] was 2.98 µM (active); in test [4] it was 6.3 µM (active); in test [5], > 100 µM (inactive); in test [6], > 100 µM (inactive).

Turning to `Cc1cccc(C(=O)OCc2cc3ccccc3[nH]c2=O)c1`, the EC50 in test [7] and in test [8] was > 99 µM (inactive) each time.

For the compound `O=C(Nc1cccc(Cl)c1)N1CCc2ccccc2C1`, the IC50 was 7.31 µM (active) in test [3], 18.9 µM (active) in test [4], 26.1 µM (active) in test [5] and 25.5 µM (active) in test [6].

Turning to `CCn1cc(C=C2C(=O)c3ccccc3C2=O)c2ccccc21`, the EC50 in test [7] was 35.9 µM (inactive); in test [8] it was > 99 µM (inactive).

On to `O=C1CSC(=S)N1N=Cc1c(O)ccc2ccccc12`, for which the EC50 in test [7] and in test [8] was > 99 µM (inactive) in each case.

On to `COCCCn1c(=O)/c(=C\c2ccccc2OC(F)F)s/c1=C(/C#N)C(=O)NCCOC`, for which the EC50 in test [7] and in test [8] was > 99 µM (inactive) each time.

The EC50 is the concentration giving half of the maximal effect.
